Article PMC6271701, “An Unusual 2,3-Secotaraxerene and Other Cytotoxic Triterpenoids from Pleiocarpa pycnantha (Apocynaceae) Leaves Collected from Nigeria” (Molecules, 2014)

How the values were obtained:
HeLa cells = assay: WST-1 cytotoxicity assay, HeLa cells; format: cell-based, human; conditions: for SI HeLa: Selectivity Index = IC50(KMST-6)/IC50(HeLa); for IC50: WST-1 assay, 24 h treatment
Procedure: (§1) HeLa, HT-29, MCF-7 and KMST-6 cells were prepared from our laboratory stocks. Briefly, cell monolayers were maintained in Dulbecco’s modified Eagle’s (DMEM, Lonza Group Ltd., Base, Switzerland) medium with phenol red supplemented with 10% foetal bovine serum (FBS, Biochrom AG, Berlin, Germany) and 1% Penicillin–streptomycin (Lonza Group Ltd.). All cells were maintained in a humidified incubated at 37 °C in an atmosphere of 5% CO2. The cells were harvested using trypsin (Lonza Group Ltd.), and viable cell concentrations were determined using the Countess® Automated Cell Counter (Invitrogen, CA, USA). 5 × 10^4 viable cells were added to each well of a 96-well tissue culture plate and incubated overnight at 37 °C under 5% CO2 in a humidified incubator to allow cells to attach to wells.
(§2) Cell viability was measured using the WST-1 assay (Roche Diagnostics GmbH, Mannheim, Germany) as previously described by Ngamwongsatit et al., 2008. Cells were plated in 96-well cell culture plates at a concentration of 5 × 10^4 cells/well in 100 µL culture medium. After 24 h the cells were treated with increasing concentrations of ethanol extract (0–2 mg/mL), fractions (0–2 mg/mL) and purified compounds (0–250 µg/mL) for a further 24 h. The extracts, fractions and compounds were prepared in DMSO and then mixed with the culture medium. The final concentrations of the DMSO were less than 0.1%. Following 24 h treatment, 10 µL of cell proliferation reagent WST-1 was added and the plates were incubated for 4 h at 37 °C under 5% CO2 in a humidified incubator. The plates wereshakenfor 1 min on a shaker and the absorbance of the samples were measured at 450 nm (reference wavelength was 750 nm) on a micro-plate reader. The cell viability was calculated using the following formula: % Viability = ODtreated well − ODblank/ODuntreated well − ODblank(1) IC50 values were calculated using Prism Graph pad software. Triplicate experiments were conducted and the results expressed as mean ± SEM.

HT-29 cells = assay: WST-1 cytotoxicity assay, HT-29 cells; format: cell-based, human; conditions: for SI HT-29: Selectivity Index = IC50(KMST-6)/IC50(HT-29); for IC50: WST-1 assay, 24 h treatment
Procedure: as §1, §2

MCF-7 cells = assay: WST-1 cytotoxicity assay, MCF-7 cells; format: cell-based, human; conditions: for SI MCF-7: Selectivity Index = IC50(KMST-6)/IC50(MCF-7); for IC50: WST-1 assay, 24 h treatment
Procedure: as §1, §2

KMST-6 cells = assay: WST-1 cytotoxicity assay, non-cancerous KMST-6 fibroblasts; format: cell-based, human; conditions: WST-1 assay; for IC50: 24 h treatment, non-cancerous fibroblast
Procedure: as §1, §2

[1] = E/Z isomer stability followed by 1H-NMR; format: physicochemical; conditions: 2–3 months under normal working conditions
Excerpt: Triterpene esters containing the E-coumaric acid isomer have been reported from natural sources, while, the co-existence of E- and Z-coumaric acid esters of ursolic acid (compounds 2 and 3) in Plumeria obtusa of the same family has been reported once.

[2] = tested on: MCF-7 breast tumour cell line; conditions: read-out: GI50 MCF-7; in vitro; cited from earlier work
[3] = tested on: ME 180 cervical tumour cell line; conditions: read-out: GI50 ME 180; in vitro; cited from earlier work
[4] = tested on: PC3 prostate tumour cell line; conditions: read-out: GI50 PC3; in vitro; cited from earlier work
[5] = tested on: acetyl CoA cholestryl acyl tranferase (ACAT); parameters: method as in PMID 10425145; conditions: cited from earlier work
[6] = Stability of the hydrolysed derivative in organic solvents; format: physicochemical; conditions: organic solvents such as methanol and chloroform
Excerpt: Compound 4 was isolated as colourless needle-like crystals with molecular formula of C30H48O2 on the basis of TOF-ESI-MS m/z 441.3735[M+H]^+. […] The signal at δ 174.8 (C-2), 77.9 (C-3) in addition to oxygenated methylene protons at δ 3.79 and 4.08 (CH2-3) indicated the presence of a lactone group. […] The NMR data were assigned unambiguously from 2D NMR spectral analysis of compound 4 and its hydrolyzed product 5. The structure was finally established from X-ray diffraction studies. Figure 2 illustrates the perspective view of the molecule with its relative configuration. The compound was thus assigned as 2,3-seco-taraxer-14-en-2,3-lactone and given the name pycanocarpine. After alkaline hydrolysis, compound 4 produced the unstable derivative viz 2,3-seco-3-hydroxy-taraxer-14-en-3-oic acid (5) as an off-white amorphous powder. The TOF-ESI-MS indicated an m/z 459.3889 [M+H]^+. It was noticeable that the free carboxylic and hydroxyl groups would easily reform the lactone ring after a short time in organic solvents such as methanol and chloroform. The NMR data of 5 is similar to the parent compound 4 and is illustrated in Table 1. Minor changes were observed between 4 and 5 for carbons C-11, -23, -24, and -26. The stereochemistry of both compounds, especially ring A, may partially explain this. In 4 the carbonyl group is directed into the same plan similar to C-24, -26 and -11.

[7] = at the dosages used (0–250 µg/mL)

Structure (SMILES) | SI HeLa (HeLa cells) | IC50 (HeLa cells) [µM] | SI HT-29 (HT-29 cells) | IC50 (HT-29 cells) [µM] | SI MCF-7 (MCF-7 cells) | IC50 (MCF-7 cells) [µM] | IC50 (KMST-6 cells) [µM] | E/Z isomerization of the isomers (1H-NMR) [1] | IC50 (HeLa cells; Homo sapiens, HeLa, 24 h) [µM] | IC50 (HT-29 cells; Homo sapiens, HT-29, 24 h) [µM] | IC50 (MCF-7 cells; Homo sapiens, MCF7, 24 h) [µM] | IC50 (KMST-6 cells; Homo sapiens, Fibroblast, 24 h) [µM] | cytotoxicity to non-cancerous cell line KMST-6 (in words) (KMST-6 cells) | melting point [°C] | other results
CC1CCC2(C(=O)O)CCC3(COC(=O)C=Cc4ccc(O)cc4)C(=CCC4C5(C)CCC(O)C(C)(C)C5CCC43C)C2C1C (stereo not shown) [Compound 2, 27-p-E-coumaroloxyursolic acid] | 2 | 50 | 1 | 100 | 1.7 | 60 | 100 | did not observe any such change |  |  |  |  |  |  | 
C[C@H]1[C@H](C)CC[C@]2(C(=O)O)CC[C@]3(C)C(=CC[C@@H]4[C@@]5(C)CC[C@H](O)C(C)(C)[C@@H]5CC[C@]43C)[C@H]12 [Compound 1, ursolic acid] | 10.0 |  | 10.0 |  | 5.0 |  |  |  | 10 | 10 | 20 | 100 |  |  | 
C[C@H]1[C@H](C)CC[C@]2(C(=O)O)CC[C@]3(C)C(=CC[C@@H]4[C@@]5(C)CC[C@H](OC(=O)/C=C\c6ccc(O)cc6)C(C)(C)[C@@H]5CC[C@]43C)[C@H]12 (relative stereo) [cis-3-O-p-hydroxycinnamoyl ursolic acid] |  |  |  |  |  |  |  |  |  |  |  |  |  |  | GI50 [2]: ~20 µM; GI50 [3]: ~20 µM; GI50 [4]: ~20 µM
CC1CCC2(C(=O)O)CCC3(COC(=O)C=Cc4ccc(O)cc4)C(=CCC4C5(C)CCC(O)C(C)(C)C5CCC43C)C2C1C (stereo not shown) [Compound 3, 27-p-Z-coumaroyloxyursolic acid] | 1.5 | 200 | 1.3 | 230 | 1.7 | 180 | 300 | did not observe any such change |  |  |  |  | non- cytotoxic |  | activity against ACAT (in words) [5]: potent activity
CC1(C)CCC2(C)CC=C3C(C)(CCC4C3(C)CCC3C(C)(C)COC(=O)CC34C)C2C1 (stereo not shown) [Compound 4, 2,3-seco-taraxer-14-en-2,3-lactone] |  |  |  |  | >30 |  |  |  | > 600 | > 600 | 20 | > 600 | non- cytotoxic | 246 to 249 | cytotoxicity on HeLa cells (in words) (HeLa cells; [7]): did not show cytotoxicity; cytotoxicity on HT-29 cells (in words) (HT-29 cells; [7]): did not show cytotoxicity
CC1(C)CC[C@]2(C)CC=C3[C@]4(C)CCC(C(C)(C)CO)[C@](C)(CC(=O)O)C4CC[C@@]3(C)C2C1 (stereo partly shown) [Compound 5, 2,3-seco-3-hydroxy-taraxer-14-en-3-oic acid] | 0.06 |  | 0.06 |  | 1 |  |  |  | 180 | 170 | 10 | 10 |  | 237 to 241 | stability (re-lactonisation) [6]: unstable
